# Test system: MDA-MB-231
# Assay: Inhibition of MDA-MB-231 viability/growth at 1 μM, 72 h
# Assay type: cell-based
# Details: 1 μM compound, 72 h incubation
row,SMILES,"Inhibition of MDA-MB-231, result in words"
1,"Nc1n[nH]c2cc([C@@H]3Nc4c(Br)cc5[nH]ncc5c4[C@H]4[C@@H]5CC[C@@H](C5)[C@H]43)ccc12 (stereo in doubt) [Compound 25, 6-(5-Bromo-6,7,7a,8,9,10,11,11a-octahydro-3H-8,11-methanopyrazolo[4,3-a]phenanthridin-7-yl)-1H-indazol-3-amine]",inactive
2,"Cc1n[nH]c2ccc3c(c12)[C@H]1C2CC[C@@H](C2)[C@H]1[C@H](c1ccc2[nH]nc(N)c2c1)N3 (stereo in doubt) [Compound 20, 5-(1-Methyl-6,7,7a,8,9,10,11,11a-octahydro-3H-8,11-methanopyrazolo[4,3-a]phenanthridin-7-yl)-1H-indazol-3-amine]",loss of potency
3,"Nc1n[nH]c2ccc([C@@H]3Nc4ccc5[nH]nc(F)c5c4[C@H]4C5CC[C@@H](C5)[C@@H]34)cc12 (stereo in doubt) [Compound 21, 5-(1-Fluoro-6,7,7a,8,9,10,11,11a-octahydro-3H-8,11-methanopyrazolo[4,3-a]phenanthridin-7-yl)-1H-indazol-3-amine]",loss of potency
4,"Nc1n[nH]c2ccc([C@@H]3Nc4ccc5[nH]cnc5c4[C@H]4C5CC[C@@H](C5)[C@@H]34)cc12 (stereo in doubt) [Compound 19, 5-(6,7,7a,8,9,10,11,11a-Octahydro-3H-8,11-methanoimidazo[4,5-a]phenanthridin-7-yl)-1H-indazol-3-amine]",loss in potency
5,"Nc1n[nH]c2ccc([C@@H]3Nc4ccc5[nH]ncc5c4[C@H]4OCCO[C@H]43)cc12 (stereo in doubt) [Compound 33, 5-(2,3,4a,6,9,11c-Hexahydro-5H-[1,4]dioxino[2,3-c]pyrazolo[4,3-f]quinolin-5-yl)-1H-indazol-3-amine]",no activity
6,"Nc1n[nH]c2ccc([C@@H]3Nc4ccc5[nH]nnc5c4[C@H]4C5CC[C@@H](C5)[C@@H]34)cc12 (stereo in doubt) [Compound 18, 5-(6,7,7a,8,9,10,11,11a-Octahydro-3H-8,11-methano[1,2,3]triazolo[4,5-a]phenanthridin-7-yl)-1H-indazol-3-amine]",loss in potency
7,"Nc1n[nH]c2cc([C@@H]3Nc4c(Cl)cc5[nH]ncc5c4[C@H]4[C@@H]5CC[C@@H](C5)[C@H]43)ccc12 (stereo in doubt) [Compound 24, 6-(5-Chloro-6,7,7a,8,9,10,11,11a-octahydro-3H-8,11-methanopyrazolo[4,3-a]phenanthridin-7-yl)-1H-indazol-3-amine]",inactive

# Same assay, conditions: Homo sapiens, MDA-MB-231; 1 μM compound, 72 h incubation
row,SMILES,inhibition at 1 µM [%]
1,"Nc1n[nH]c2cc([C@@H]3Nc4ccc5[nH]ncc5c4[C@H]4[C@@H]5CC[C@@H](C5)[C@H]43)ccc12 (stereo in doubt) [Compound 30, 6-(6,7,7a,8,9,10,11,11a-Octahydro-3H-8, 11-methanopyrazolo[4,3-a]phenanthridin-7-yl)-1H-indazol-3-amine]",29
2,"Cn1cc([C@@H]2Nc3ccc4[nH]ncc4c3[C@H]3[C@@H]4CC[C@@H](C4)[C@H]32)c(C(F)(F)F)n1 (stereo in doubt) [Compound 5, 7-(1-Methyl-3-(trifluoromethyl)-1H-pyrazol-4-yl)-6,7,7a,8,9,10,11,11a-octahydro-3H-8,11-methanopyrazolo[4,3-a]phenanthridine]",70
3,"COc1cnccc1[C@@H]1Nc2ccc3[nH]ncc3c2[C@H]2C3CC[C@@H](C3)[C@@H]12 (stereo in doubt) [Compound 15, 7-(3-Methoxypyridin-4-yl)-6,7,7a,8,9,10,11,11a-octahydro-3H-8,11-methanopyrazolo[4,3-a]phenanthridine]",12
4,"Nc1nc2ccc([C@@H]3Nc4ccc5[nH]ncc5c4[C@H]4[C@@H]5CC[C@@H](C5)[C@H]43)cc2s1 [Compound 29, 6-(6,7,7a,8,9,10,11,11a-Octahydro-3H-8,11-methanopyrazolo[4,3-a]phenanthridin-7-yl)benzo[d]thiazol-2-amine]",41
5,"c1csc([C@@H]2Nc3ccc4[nH]ncc4c3[C@H]3[C@@H]4CC[C@@H](C4)[C@H]32)n1 (stereo in doubt) [Compound 3, 2-(6,7,7a,8,9,10,11,11a-Octahydro-3H-8,11-methanopyrazolo[4,3-a]phenanthridin-7-yl)thiazole]",13
6,"NC(=O)c1ccc([C@@H]2Nc3ccc4[nH]ncc4c3[C@H]3C4CC[C@@H](C4)[C@@H]23)cc1 (stereo in doubt) [Compound 12, 4-(6,7,7a,8,9,10,11,11a-Octahydro-3H-8,11-methanopyrazolo[4,3-a]phenanthridin-7-yl)benzamide]",17
7,"Nc1ccc([C@@H]2Nc3ccc4[nH]ncc4c3[C@H]3[C@@H]4CC[C@@H](C4)[C@H]32)cn1 (stereo in doubt) [Compound 9, 5-(6,7,7a,8,9,10,11,11a-Octahydro-3H-8,11-methanopyrazolo[4,3-a]phenanthridin-7-yl)pyridin-2-amine]",18
8,"Nc1n[nH]c2ccc(-c3nc4ccc5[nH]ncc5c4c4c3[C@H]3CC[C@@H]4C3)cc12 (stereo in doubt) [Compound 32, 5-(8,9,10,11-tetrahydro-3H-8,11-Methanopyrazolo[4,3-a]phenanthridin-7-yl)-1H-indazol-3-amine]",19
9,"N#Cc1cc([C@@H]2Nc3ccc4[nH]ncc4c3[C@H]3[C@@H]4CC[C@@H](C4)[C@H]32)ccc1F (stereo in doubt) [Compound 10, 2-Fluoro-5-(−6,7,7a,8,9,10,11,11a-octahydro-3H-8,11-methanopyrazolo[4,3-a]phenanthridin-7-yl)benzonitrile]",3
10,"Oc1ccc([C@@H]2Nc3ccc4[nH]ncc4c3[C@H]3C4CC[C@@H](C4)[C@@H]23)cc1 (stereo in doubt) [Compound 11, 4-(−6,7,7a,8,9,10,11,11a-Octahydro-3H-8,11-methanopyrazolo[4,3-a]phenanthridin-7-yl)phenol]",0
11,"FC(F)(F)c1n[nH]cc1[C@@H]1Nc2ccc3[nH]ncc3c2[C@H]2[C@@H]3CC[C@@H](C3)[C@H]21 (stereo in doubt) [Compound 1, 7-(3-(Trifluoromethyl)-1H-pyrazol-4-yl)-6,7,7a,8,9,10,11,11a-octahydro 3H-8,11-methanopyrazolo[4,3-a]phenanthridine]",5
12,"c1nc([C@@H]2Nc3ccc4[nH]ncc4c3[C@H]3[C@@H]4CC[C@@H](C4)[C@H]32)c[nH]1 (stereo in doubt) [Compound 4, 7-(1H-Imidazol-4-yl)-6,7,7a,8,9,10,11,11a-octahydro-3H-8,11-methanopyrazolo[4,3-a]phenanthridine]",14
13,"Nc1n[nH]c2ccc([C@@H]3Nc4ccc5cn[nH]c5c4[C@H]4[C@@H]5CC[C@@H](C5)[C@H]43)cc12 (stereo in doubt) [Compound 31, 5-(6,7,7a,8,9,10,11,11a-Octahydro-1H-8,11-methanopyrazolo[3,4-a]phenanthridin-7-yl)-1H-indazol-3-amine]",94
14,"c1cc2[nH]ncc2cc1[C@@H]1Nc2ccc3[nH]ncc3c2[C@H]2C3CC[C@@H](C3)[C@@H]12 (stereo in doubt) [Compound 16, 7-(1H-Indazol-5-yl)-6,7,7a,8,9,10,11,11a-octahydro-3H-8,11-methanopyrazolo[4,3-a]phenanthridine]",78
15,"FC(F)(F)c1ccc([C@@H]2Nc3ccc4[nH]ncc4c3[C@H]3[C@@H]4CC[C@@H](C4)[C@H]32)cc1 (stereo in doubt) [Compound 6, 7-(4-(Trifluoromethyl)phenyl)-6,7,7a,8,9,10,11,11a-octahydro-3H-8,11-methanopyrazolo[4,3-a]phenanthridine]",21
16,"c1csc([C@@H]2Nc3ccc4[nH]ncc4c3[C@H]3[C@@H]4CC[C@@H](C4)[C@H]32)c1 (stereo in doubt) [Compound 8, 7-(Thiophen-2-yl)-6,7,7a,8,9,10,11,11a-octahydro-3H-8,11-methanopyrazolo[4,3-a]phenanthridine]",13
17,"Cn1cc([C@@H]2Nc3ccc4[nH]ncc4c3[C@H]3C4CC[C@@H](C4)[C@@H]23)c(C2CC2)n1 (stereo in doubt) [Compound 13, 7-(3-Cyclopropyl-1-methyl-1H-pyrazol-4-yl)-6,7,7a,8,9,10,11,11a-octahydro-3H-8,11-methanopyrazolo[4,3-a]phenanthridine]",0
18,"Fc1cnccc1[C@@H]1Nc2ccc3[nH]ncc3c2[C@H]2[C@@H]3CC[C@@H](C3)[C@H]21 (stereo in doubt) [Compound 7, 7-(3-Fluoropyridin-4-yl)-6,7,7a,8,9,10,11,11a-octahydro-3H-8,11-methanopyrazolo[4,3-a]phenanthridine]",11
19,"c1cc2cn[nH]c2cc1[C@@H]1Nc2ccc3[nH]ncc3c2[C@H]2C3CC[C@@H](C3)[C@@H]12 (stereo in doubt) [Compound 17, 7-(1H-Indazol-6-yl)-6,7,7a,8,9,10,11,11a-octahydro-3H-8,11-methanopyrazolo[4,3-a]phenanthridine]",91
20,"O=C(Nc1n[nH]c2ccc([C@@H]3Nc4ccc5[nH]ncc5c4[C@H]4[C@@H]5CC[C@@H](C5)[C@H]43)cc12)C1CC1 (stereo in doubt) [Compound 28, N-(5-(6,7,7a,8,9,10,11,11a-octahydro-3H-8,11-Methanopyrazolo[4,3-a]phenanthridin-7-yl)-1H-indazol-3-yl)cyclopropanecarboxamide]",31
21,"c1n[nH]cc1[C@@H]1Nc2ccc3[nH]ncc3c2[C@H]2[C@@H]3CC[C@@H](C3)[C@H]21 (stereo in doubt) [Compound 2, 7-(1H-Pyrazol-4-yl)-6,7,7a,8,9,10,11,11a-octahydro-3H-8,11-methanopyrazolo[4,3-a]phenanthridine]",12
